Experimental data published in patent US11254686B1 (Corvus Pharmaceuticals, Inc., priority 2017, dated 2022).

What was measured:
adenosine A2B receptor = adenosine A2B receptor (Homo sapiens (Human), UniProt P29275); assay: Adenosine receptor activity assay (Table 1), A2B activity; assay type: biochemical; conditions: for IC50: read-out: Ave A2B cAMP IC50
adenosine A2A receptor = adenosine A2A receptor (Homo sapiens (Human), UniProt P29274); assay: Adenosine receptor activity assay (Table 1), A2A activity; assay type: biochemical; conditions: read-out: Ave A2A cAMP IC50
adenosine A1 receptor [1] = biological target: T1, adenosine A1 receptor (Homo sapiens (Human), UniProt P30542); assay: Adenosine receptor activity assay (Table 1), A1 cAMP; assay type: biochemical
Description: (§1) Table 1. Compounds (e.g., Adenosine Receptor modulators) and activity assay results. The legend is as follows: A=<10 nM; B=10-50 nM; C=50-100 nM; D=100-500; and E=>500 nM. The ratio corresponds to the A2A activity to the A2B activity; or A2A/A2B.

adenosine A3 receptor [2] = biological target: T2, adenosine A3 receptor (Homo sapiens (Human), UniProt P0DMS8); assay: Adenosine receptor activity assay (Table 1), A3 cAMP; assay type: biochemical
Description: as §1

[3] = Liver microsome intrinsic clearance (LM CLint), rat; assay type: in vitro ADME
[4] = Liver microsome intrinsic clearance (LM CLint), human; assay type: in vitro ADME
adenosine A1 receptor [5] = biological target: T1, adenosine A1 receptor; assay: Adenosine receptor activity assay (Table 1), A1 cAMP; assay type: cell-based
adenosine A3 receptor [6] = biological target: T2, adenosine A3 receptor; assay: Adenosine receptor activity assay (Table 1), A3 cAMP; assay type: cell-based
[7] = Liver microsome intrinsic clearance, rat; assay type: in vitro ADME
[8] = Liver microsome intrinsic clearance, human; assay type: in vitro ADME
adenosine A1 receptor [9] = biological target: T1, adenosine A1 receptor; assay: A1 cAMP IC50 assay (Table 1); assay type: biochemical
adenosine A3 receptor [10] = biological target: T2, adenosine A3 receptor; assay: A3 cAMP IC50 assay (Table 1); assay type: biochemical
CYP3A4 = CYP3A4 (Homo sapiens (Human), UniProt P08684); assay: CYP450 inhibition at 10 μM, CYP3A4; assay type: in vitro ADME; conditions: human, 10 μM, read-out: CYP 450 % INH @ 10 μM
CYP2D6 = CYP2D6 (Homo sapiens (Human), UniProt P10635); assay: CYP450 inhibition at 10 μM, CYP2D6; assay type: in vitro ADME; conditions: read-out: CYP 450 % INH @ 10 μM
[11] = Liver microsome (LM) intrinsic clearance, rat; assay type: in vitro ADME
[12] = Liver microsome (LM) intrinsic clearance, human; assay type: in vitro ADME
[13] = Hepatocyte (Hep) intrinsic clearance, rat; assay type: in vitro ADME; conditions: hepatocytes
[14] = Hepatocyte (Hep) intrinsic clearance, dog; assay type: in vitro ADME; conditions: hepatocytes
[15] = Hepatocyte (Hep) intrinsic clearance, human; assay type: in vitro ADME; conditions: hepatocytes
[16] = A2A activity to the A2B activity, A2A/A2B
[17] = A2A activity to A2B activity (A2A/A2B)

Chain of adenosine A2A receptor (P29274 whole entry): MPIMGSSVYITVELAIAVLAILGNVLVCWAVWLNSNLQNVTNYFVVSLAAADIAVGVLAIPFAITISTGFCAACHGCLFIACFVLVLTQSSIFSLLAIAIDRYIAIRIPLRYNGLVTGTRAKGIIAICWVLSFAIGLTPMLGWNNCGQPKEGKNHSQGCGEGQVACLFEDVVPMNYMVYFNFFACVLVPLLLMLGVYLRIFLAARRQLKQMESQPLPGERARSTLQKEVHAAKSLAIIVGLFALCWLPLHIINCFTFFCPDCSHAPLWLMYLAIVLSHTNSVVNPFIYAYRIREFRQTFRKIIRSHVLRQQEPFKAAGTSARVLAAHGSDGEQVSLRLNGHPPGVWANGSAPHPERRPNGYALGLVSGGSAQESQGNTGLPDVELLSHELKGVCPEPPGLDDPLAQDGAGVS
T1 sequence (P30542 whole entry): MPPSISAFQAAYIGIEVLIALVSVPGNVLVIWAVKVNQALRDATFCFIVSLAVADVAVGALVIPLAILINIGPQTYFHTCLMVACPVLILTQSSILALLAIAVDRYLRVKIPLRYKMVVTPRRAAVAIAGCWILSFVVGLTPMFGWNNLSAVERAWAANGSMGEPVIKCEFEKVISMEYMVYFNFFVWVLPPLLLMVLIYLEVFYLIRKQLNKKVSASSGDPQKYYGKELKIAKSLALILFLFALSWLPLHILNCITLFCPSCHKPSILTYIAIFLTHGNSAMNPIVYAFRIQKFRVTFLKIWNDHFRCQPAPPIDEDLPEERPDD
Chain of adenosine A2B receptor (P29275 whole entry): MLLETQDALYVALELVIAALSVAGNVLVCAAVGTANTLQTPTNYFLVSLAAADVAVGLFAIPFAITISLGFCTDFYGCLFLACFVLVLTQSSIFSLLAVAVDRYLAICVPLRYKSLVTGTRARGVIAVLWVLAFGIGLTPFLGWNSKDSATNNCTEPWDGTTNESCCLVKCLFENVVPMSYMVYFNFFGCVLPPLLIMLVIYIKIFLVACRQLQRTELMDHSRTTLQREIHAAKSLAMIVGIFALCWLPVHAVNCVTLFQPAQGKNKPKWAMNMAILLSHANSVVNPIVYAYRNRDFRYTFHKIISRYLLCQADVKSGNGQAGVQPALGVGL
T2 sequence (P0DMS8 whole entry): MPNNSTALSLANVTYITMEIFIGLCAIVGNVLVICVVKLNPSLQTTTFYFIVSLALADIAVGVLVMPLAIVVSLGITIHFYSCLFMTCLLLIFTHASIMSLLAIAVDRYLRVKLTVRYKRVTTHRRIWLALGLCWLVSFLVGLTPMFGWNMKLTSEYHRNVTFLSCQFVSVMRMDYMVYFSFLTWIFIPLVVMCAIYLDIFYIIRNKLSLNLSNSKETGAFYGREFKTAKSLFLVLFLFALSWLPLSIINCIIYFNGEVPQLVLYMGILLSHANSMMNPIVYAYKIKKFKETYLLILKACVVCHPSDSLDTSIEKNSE
Chain of CYP2D6 (P10635 whole entry): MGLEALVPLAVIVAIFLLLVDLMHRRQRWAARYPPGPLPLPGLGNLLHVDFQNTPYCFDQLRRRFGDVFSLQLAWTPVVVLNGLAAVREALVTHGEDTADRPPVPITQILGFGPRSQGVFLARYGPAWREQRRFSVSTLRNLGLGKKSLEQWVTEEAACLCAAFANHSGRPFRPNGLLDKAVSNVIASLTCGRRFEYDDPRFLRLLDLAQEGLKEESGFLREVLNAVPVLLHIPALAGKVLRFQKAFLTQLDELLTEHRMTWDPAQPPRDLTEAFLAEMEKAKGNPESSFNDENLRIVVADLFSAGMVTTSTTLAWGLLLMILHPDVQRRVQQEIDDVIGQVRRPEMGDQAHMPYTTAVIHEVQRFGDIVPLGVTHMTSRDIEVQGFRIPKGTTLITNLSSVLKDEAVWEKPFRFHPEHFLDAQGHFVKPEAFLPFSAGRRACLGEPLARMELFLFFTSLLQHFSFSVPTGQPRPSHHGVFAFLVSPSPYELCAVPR
Chain of CYP3A4 (P08684 whole entry): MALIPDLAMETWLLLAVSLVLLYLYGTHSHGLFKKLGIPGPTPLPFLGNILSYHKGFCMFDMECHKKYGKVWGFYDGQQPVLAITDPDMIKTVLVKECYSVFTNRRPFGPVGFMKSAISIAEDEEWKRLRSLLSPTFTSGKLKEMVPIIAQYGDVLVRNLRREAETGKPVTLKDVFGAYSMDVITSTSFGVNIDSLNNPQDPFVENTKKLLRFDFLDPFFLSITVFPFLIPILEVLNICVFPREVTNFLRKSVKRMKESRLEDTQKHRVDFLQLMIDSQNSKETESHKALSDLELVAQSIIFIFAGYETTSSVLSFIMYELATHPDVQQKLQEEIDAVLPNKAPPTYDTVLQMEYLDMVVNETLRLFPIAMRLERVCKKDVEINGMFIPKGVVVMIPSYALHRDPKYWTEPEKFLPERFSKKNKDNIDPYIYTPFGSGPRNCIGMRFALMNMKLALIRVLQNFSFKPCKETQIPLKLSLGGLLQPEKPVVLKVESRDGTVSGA

Compound | Ratio (adenosine A2B receptor; [16]) | IC50 (adenosine A2B receptor) [nM] | IC50 (adenosine A2A receptor) [nM] | IC50 (adenosine A1 receptor [1]) [nM] | IC50 (adenosine A3 receptor [2]) [nM] | LM CLint [3] [μL/min/mg/protein] | LM CLint [4] [μL/min/mg/protein] | Ratio (adenosine A2B receptor; [17]) | IC50 (adenosine A1 receptor [5]) [nM] | IC50 (adenosine A3 receptor [6]) [nM] | LM CLint [7] [μL/min/mg/protein] | LM CLint [8] [μL/min/mg/protein] | further results
Cc1cc2nc(N[C@@H](C)c3cncc(F)c3)nc(C(=O)N3CC(N)C3)c2s1 [Example Z430, (S)-(3-Aminoazetidin-1-yl)(2-((1-(5-fluoropyridin-3-yl)ethyl)amino)-6-methylthieno[3,2-d]pyrimidin-4-yl)methanone] | 177.08 | < 10 | > 500 | > 500 | > 500 | 4.83 | 5.77 | – | – | – | – | – | –
Cc1cc2nc(N[C@@H](C)c3cncc(F)c3)nc(C(=O)NCC[C@H]3CCNC3)c2s1 [Example Z463, 2-(((S)-1-(5-Fluoropyridin-3-yl)ethyl)amino)-6-methyl-N-(2-((R)-pyrrolidin-3-yl)ethyl)thieno[3,2-d]pyrimidine-4-carboxamide] | 159.87 | 10 to 50 | > 500 | > 500 | > 500 | 48.47 | 4.85 | – | – | – | – | – | –
CC(=O)Nc1ccc(CCNC(=O)c2nc(N[C@@H](C)c3cncc(F)c3)nc3ccsc23)cc1 [Example Z421, (S)—N-(4-Acetamidophenethyl)-2-((1-(5-fluoropyridin-3-yl)ethyl)amino)thieno[3,2-d]pyrimidine-4-carboxamide] | – | 10 to 50 | – | – | – | 85.16 | 228.45 | – | – | – | – | – | –
C[C@H](Nc1nc(C(=O)NCCc2ccc(O)cc2)c2sccc2n1)c1cncc(F)c1 [Example Z340, (S)-2-((1-(5-Fluoropyridin-3-yl)ethyl)amino)-N-(4-hydroxyphenethyl)thieno[3,2-d]pyrimidine-4-carboxamide] | – | < 10 | 100 to 500 | – | – | – | – | 95.47 | > 500 | > 500 | 504.21 | 258.52 | –
Cc1csc2c(C(=O)N3CCC3)nc(N[C@@H](C)c3cncc(F)c3)nc12 [Example Z415, (S)-Azetidin-1-yl(2-((1-(5-fluoropyridin-3-yl)ethyl)amino)-7-methylthieno[3,2-d]pyrimidin-4-yl)methanone] | 21.01 | < 10 | 10 to 50 | 50 to 100 | > 500 | 56.26 | 82.97 | – | – | – | – | – | –
C[C@H](Nc1nc(C(=O)N2CC(CN)C2)c2sccc2n1)c1cncc(F)c1 [Example Z419, (S)-(3-(Aminomethyl)azetidin-1-yl)(2-((1-(5-fluoropyridin-3-yl)ethyl)amino)thieno[3,2-d]pyrimidin-4-yl)methanone] | – | 10 to 50 | – | – | – | 9.09 | 0.69 | – | – | – | – | – | –
C[C@H](Nc1nc(C(=O)N2CC(N)C2)c2sccc2n1)c1cncc(F)c1 [Example Z401, (S)-(3-Aminoazetidin-1-yl)(2-((1-(5-fluoropyridin-3-yl)ethyl)amino)thieno[3,2-d]pyrimidin-4-yl)methanone] | – | 10 to 50 | – | – | – | 5.32 | 2.64 | – | – | – | – | – | –
Cc1cc2nc(N[C@@H](C)c3cccnc3)nc(C(=O)N3CC[C@@H](CO)C3)c2s1 [Example Z335, ((R)-3-(Hydroxymethyl)pyrrolidin-1-yl)(6-methyl-2-(((S)-1-(pyridin-3-yl)ethyl)amino)thieno[3,2-d]pyrimidin-4-yl)methanone] | – | < 10 | > 500 | – | – | – | – | 200.00 | > 500 | > 500 | 33.31 | 10.36 | –
CO[C@@H]1CCN(C(=O)c2nc(N[C@@H](C)c3ccccn3)nc3cc(C)sc23)C1 [Example Z312, ((R)-3-Methoxypyrrolidin-1-yl)(6-methyl-2-(((S)-1-(pyridin-2-yl)ethyl)amino)thieno[3,2-d]pyrimidin-4-yl)methanone] | – | < 10 | 10 to 50 | – | – | – | – | 3.05 | > 500 | 50 to 100 | 57.04 | 10.94 | –
C[C@H](Nc1nc(C(=O)N2CC[C@@H](O)C2)c2sc(C(F)(F)F)cc2n1)c1cccnc1 [Example Z337, ((R)-3-Hydroxypyrrolidin-1-yl)(2-(((S)-1-(pyridin-3-yl)ethyl)amino)-6-(trifluoromethyl)thieno[3,2-d]pyrimidin-4-yl)methanone] | – | 10 to 50 | > 500 | – | – | – | – | 120.82 | > 500 | > 500 | 13.69 | 20.68 | –
C[C@H](Nc1nc(C(=O)N2CC(NC(=O)C3CC3)C2)c2sccc2n1)c1cncc(F)c1 [Example Z517, (S)—N-(1-(2-((1-(5-Fluoropyridin-3-yl)ethyl)amino)thieno[3,2-d]pyrimidine-4-carbonyl)azetidin-3-yl)cyclopropanecarboxamide] | 4.68 | < 10 | 10 to 50 | > 500 | > 500 | 16.99 | 6.17 | – | – | – | – | – | –
Cc1cc2nc(N[C@@H](C)c3cncc(F)c3)nc(C(=O)N3CC[C@H](N)C3)c2s1 [Example Z412, ((S)-3-Aminopyrrolidin-1-yl)(2-(((S)-1-(5-fluoropyridin-3-yl)ethyl)amino)-6-methylthieno[3,2-d]pyrimidin-4-yl)methanone] | 166.77 | 10 to 50 | > 500 | > 500 | > 500 | 26.34 | 0.15 | – | – | – | – | – | –
C[C@H](Nc1nc(C(=O)N2CC[C@@H](O)C2)c2sccc2n1)c1ccccn1 [Example Z59, ((R)-3-Hydroxypyrrolidin-1-yl)(2-(((S)-1-(pyridin-2-yl)ethyl)amino)thieno[3,2-d]pyrimidin-4-yl)methanone] | – | 10 to 50 | 100 to 500 | – | – | – | – | 12.76 | – | – | – | – | IC50 (adenosine A1 receptor [9]): > 500 nM; IC50 (adenosine A3 receptor [10]): > 500 nM; inhibition at 10 µM (CYP3A4): 0%; inhibition at 10 µM (CYP2D6): 15%; LM CLint [11]: 4.86 μL/min/mg/protein; LM CLint [12]: 4.87 μL/min/mg/protein; hepatocyte CLint [13]: 8.7 µL/min/1e6 cells; hepatocyte CLint [14]: 4.19 µL/min/1e6 cells; hepatocyte CLint [15]: 1.5 µL/min/1e6 cells
C[C@H](Nc1nc(C(=O)N2CC[C@@H](O)C2)c2sc(C(F)(F)F)cc2n1)c1cncc(F)c1 [Example Z391, (2-(((S)-1-(5-Fluoropyridin-3-yl)ethyl)amino)-6-(trifluoromethyl)thieno[3,2-d]pyrimidin-4-yl)((R)-3-hydroxypyrrolidin-1-yl)methanone] | – | < 10 | > 500 | – | – | – | – | 288.73 | > 500 | > 500 | 7.73 | 12.73 | –
COc1cccc(CNC(=O)c2nc(N[C@@H](C)c3ccccn3)nc3c(C)csc23)n1 [Example Z450, (S)—N-((6-Methoxypyridin-2-yl)methyl)-7-methyl-2-((1-(pyridin-2-yl)ethyl)amino)thieno[3,2-d]pyrimidine-4-carboxamide] | 0.64 | 10 to 50 | 10 to 50 | > 500 | 50 to 100 | 314.14 | 82.93 | – | – | – | – | – | –
COc1ccc([C@@H](C)Nc2nc(C(=O)NCc3ccc(OC)nc3)c3sccc3n2)cc1 [Example Z465, (R)-2-((1-(4-Methoxyphenyl)ethyl)amino)-N-((6-methoxypyridin-3-yl)methyl)thieno[3,2-d]pyrimidine-4-carboxamide] | 0.22 | > 500 | 10 to 50 | > 500 | > 500 | 75.91 | 35.20 | – | – | – | – | – | –
